Drawing on patent US20150225369A1, “DDR2 INHIBITORS FOR THE TREATMENT OF OSTEOARTHRITIS” (Merck Patent GmbH, priority 2012, published 2015), this text covers IC50 for ten compounds.

pIC50: −log10 of the molar value.

The assay concerns the target T1, HEK293 transfected with human DDR2 (Homo sapiens, UniProt Q16832).
T1 construct: expressed in transfected cells; host or cells: HEK293 (PLT460F_(DDR2)-P7-1)
T1 sequence (Q16832 22-855): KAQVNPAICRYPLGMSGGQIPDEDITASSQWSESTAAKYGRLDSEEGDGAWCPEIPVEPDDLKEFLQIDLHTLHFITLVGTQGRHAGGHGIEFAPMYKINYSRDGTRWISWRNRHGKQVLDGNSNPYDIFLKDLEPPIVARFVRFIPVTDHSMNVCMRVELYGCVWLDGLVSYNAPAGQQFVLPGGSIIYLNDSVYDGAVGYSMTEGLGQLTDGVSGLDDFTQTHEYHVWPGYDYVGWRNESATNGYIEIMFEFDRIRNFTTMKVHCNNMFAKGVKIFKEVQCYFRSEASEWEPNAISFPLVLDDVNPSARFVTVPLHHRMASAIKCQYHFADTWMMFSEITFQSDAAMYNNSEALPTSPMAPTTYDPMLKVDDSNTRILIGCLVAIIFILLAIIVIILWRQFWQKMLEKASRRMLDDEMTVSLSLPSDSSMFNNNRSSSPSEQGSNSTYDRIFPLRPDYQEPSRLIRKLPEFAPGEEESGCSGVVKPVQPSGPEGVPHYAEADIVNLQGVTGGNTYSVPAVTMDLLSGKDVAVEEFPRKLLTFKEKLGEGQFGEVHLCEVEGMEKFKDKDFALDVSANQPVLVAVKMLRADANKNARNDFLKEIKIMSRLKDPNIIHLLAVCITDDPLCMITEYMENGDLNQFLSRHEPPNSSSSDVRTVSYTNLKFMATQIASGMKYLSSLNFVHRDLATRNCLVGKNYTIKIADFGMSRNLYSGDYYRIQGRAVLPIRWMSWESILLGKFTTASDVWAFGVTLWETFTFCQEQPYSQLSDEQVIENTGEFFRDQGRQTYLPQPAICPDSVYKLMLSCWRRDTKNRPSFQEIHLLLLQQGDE
Description: Phospho-DDR2 cellular assay (collagen II induced DDR2 phosphorylation, ELISA). The assay is classed as cell-based. The note with it: HEK293 transfected with human DDR2, 50 μg/ml chicken collagen II, 16 h; read-out: IC50 [p-DDR2]. In a few lines: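 Cells seeded 48 h in 10% FBS, serum-starved 8 h, then given compound (5% DMSO) with 50 μg/ml chicken collagen II for 16 h at 37 °C. Lysates captured on anti-DDR2 antibody plates; phospho-DDR2 detected with HRP anti-phosphotyrosine antibody by chemiluminescence.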
Background: In an ELISA, binding on a coated surface is turned into a signal by an enzyme label.
A word on the pIC50: it is the IC50 on a negative log10 scale, so that one unit is a factor of ten. `CNC(=O)c1cc(Oc2ccc(CNC(=O)Nc3cc(Cl)cnc3OC)cc2C)ccn1` [compound 23]: the pIC50 is 8.17.
Under `CNC(=O)c1cc(Oc2ccc(CNC(=O)Nc3cc(C(F)(F)F)cn(C)c3=O)cc2)ccn1` [compound 8] stands 7.55.
The value for `COc1ncc(C)cc1NC(=O)NCc1ccc(Oc2ccncc2)cc1` [compound 18] was 7.52; that for `COc1ncc(Cl)cc1NC(=O)NCc1ccc(Oc2ccnc(C)c2)c(C)c1` [compound 28] was 7.77; that for `CNC(=O)c1cc(Oc2ccc(CNC(=O)Nc3cc(Cl)cnc3OC)cc2)ccn1` [compound 21] was 7.85.
Under `CNC(=O)c1cc(Oc2ccc(CNC(=O)Nc3cc(C)cnc3OC)cc2)ccn1` [compound 19] stands 7.62.
Take `CNC(=O)c1cc(Oc2ccc(CNC(=O)Nc3cc(C(F)(F)F)cnc3Cl)cc2C)ccn1` [compound 26]: the pIC50 is 7.37.
For `Cc1cc(Oc2ccc(CNC(=O)Nc3cc(C(F)(F)F)cnc3Cl)cc2C)ccn1` [compound 30], the pIC50 is 7.22.
Regarding `Cc1cc(Oc2ccc(CNC(=O)Nc3cc(C(F)(F)F)cn(C)c3=O)cc2C)ccn1` [compound 6], the pIC50 is 7.52.
Under `CNC(=O)c1cc(Oc2ccc(CNC(=O)Nc3cc(C(F)(F)F)cn(C)c3=O)cc2C)ccn1` [compound 7] stands 7.92.
